# Results reported in US20170304336A1, “COMBINATION” (priority 2014, published 2017).
# Columns and labels:
# Type in all cases: in vivo, male rats of Wistar line
# [1] = test system: experimental rat hypercholesterolemia model; assay: Biochemical blood analysis (drug toxicity parameters) in rat hypercholesterolemia model
# Experimental: (§1) Evaluation of hypocholesterolemic efficacy and safety of pharmaceutical combination was performed in vivo in experimental rat hypercholesterolemia model.
# (§2) For 90 days the studied animals received hypercholesterol diet for pathology induction. The diet included Cholesterol+Cholic acid+Overheated fats (deep fat).
# (§3) Drugs were introduced intragastrically with an esophageal bougie daily on Day 31-90 of the study at the same time of day.
# Biochemical parameters and activity of serum enzymes (aspartate- and alanine aminotransferase, creatine phosphokinase, urea, serum amylase, total bilirubin, direct bilirubin, indirect bilirubin, serum glucose, cations K^+, Na^+).
# 1.0-1.84 ml blood samples for the study of biochemical parameters were taken from tail vein of rats. Blood samples were taken from the animals after 14-15-hour's fasting at same time of day (9.00-11.00). For biochemical parameters tests a Biochemical Analyzer A-25 (Biosystems, Spain) was used.
# Vol. 4. pp. 1794-1798; Pearlman F C and Lee R T Y. Clin Chem 1974, 20, 447-453; Zoppi F et al, Peracino A., Fenili D., Marcovina S. and Ramella C. Giorn It Chim Cl. […] C. et al Clin Chem. 1974. Vol. 20. pp. 470-475; and in Meiattini F., et al, Clin Chem. 1978. Vol. 24. pp. 2161-2165 (total cholesterol); Warnick G R et al. Clin Chem 2001, 47, 1579-96 (HDL/LDL); Bucolo G and David H. Clin Chem. 1973.-Vol. 19. pp. 476-482; and in Fossati P. and, Prencipe L., Clin Chem. 1982. Vol. 28. pp. 2077-2080 (triglycerides); Trinder P. Ann Clin Biochem. 1969. Vol. 6. pp. 24-27).
# [2] = test system: experimental rat hypercholesterolemia model; assay: Lipid spectrum of blood in experimental rat hypercholesterolemia model
# Experimental: The animals used were male rats of Wistar line. […] The proposed model using rats as the experimental animals is a reproducible standard model for evaluation of hypocholesterolemic effect.
# as §1, §2
# For 90 days the animals received the said ration ad libitum (30 g feed per animal). Development of hypercholesterolemia in animals was evaluated based on changes in lipid spectrum parameters on Day 30 of the study.
# as §3
# Biochemical parameters and activity of blood serum enzymes (total cholesterol (CHS), LDL-CHS, HDL-CHS, triglycerides.
# 1.0-1.84 ml blood samples for the study of biochemical parameters were taken from tail vein of rats. Blood samples were taken from the animals after 14-15-hour's fasting at same time of day (9.00-11.00). For biochemical parameters tests a Biochemical Analyzer A-25 (Biosystems, Spain) was used. […]
# [3] = Mass coefficients of organs (pancreas, liver, kidneys) of rats; settings: M ± m; for weight coefficient, Kidneys / weight coefficient, Liver: in %
# Experimental: To calculate mass coefficients the pancreas, liver and kidneys of the animals were extracted. The organs were weighed and the mass coefficients were calculated by the following formula:
# Mass coefficient=(organ weight/animal body weight)×100%
# [4] = Day 30 of treatment (Day 60 of study), dose 108 mg
# [5] = blood, Day 60 of the treatment (Day 90 of the study), PV + GtA 40 + 108 mg, PV 20 mg, GtA 108 mg
# [6] = Day 60 of treatment (Day 90 of study), dose 108 mg
# [7] = PV + GtA 40 + 108 mg, PV 40 mg, GtA 108 mg
# [8] = Day 30 of treatment (Day 60 of study), dose 20 mg
# [9] = blood, Day 60 of the treatment (Day 90 of the study), LV + SGA 20 + 108 mg, LV 20 mg, SGA 108 mg
# [10] = Day 30 of treatment (Day 60 of study), dose 40 mg
# [11] = Day 60 of treatment (Day 90 of study), dose 20 mg
# [12] = Day 60 of treatment (Day 90 of study), dose 40 mg
# [13] = LV + SGA 20 + 108 mg, LV 20 mg, SGA 108 mg
smiles,measurement,setting,value
"CC1(C)[C@@H](O)CC[C@]2(C)[C@H]3C(=O)C=C4[C@@H]5C[C@@](C)(C(=O)O)CC[C@]5(C)CC[C@@]4(C)[C@]3(C)CC[C@@H]12 [GtA, (2S,4aS,6aS,6bR,8aR,10S,12aS,12bR,14bR)-10-hydroxy-2,4a,6a,6b,9,9,12a-heptamethyl-13-oxo-1,2,3,4,4a,5,6,6a,6b,7,8,8a,9,10,11,12,12a,12b,13,14b-icosahydropicene-2-carboxylic acid]",ALT,[1]; [4],97 U/l
same,AST,[1]; [4],130 U/l
same,Amylase,[1]; [4],622 U/l
same,Bilirubin direct,[1]; [4],1.1 mg/dL
same,Bilirubin indirect,[1]; [4],1.7 mg/dL
same,Bilirubin total,[1]; [4],3.2 mg/dL
same,CPK,[1]; [4],390 U/l
same,Glucose,[1]; [4],119 mg/dL
same,Potassium,[1]; [4],2.8 mM
same,Urea,[1]; [4],6.5 mmol/L
same,ALT,[1]; [5],101 U/l
same,AST,[1]; [5],120 U/l
same,Amylase,[1]; [5],599 U/l
same,Bilirubin direct,[1]; [5],1.2 mg/dL
same,Bilirubin indirect,[1]; [5],1.8 mg/dL
same,Bilirubin total,[1]; [5],2.7 mg/dL
same,CPK,[1]; [5],300 U/l
same,Glucose,[1]; [5],112 mg/dL
same,Potassium,[1]; [5],3.1 mM
same,Urea,[1]; [5],5.5 mmol/L
same,HDL CHS,[2]; [4],0.51 ± 0.04 mmol/L
same,LDL CHS,[2]; [4],4.40 ± 0.4 mmol/L
same,TG,[2]; [4],1.6 ± 0.11 mmol/L
same,Total CHS,[2]; [4],4.9 ± 0.5 mmol/L
same,HDL CHS,[2]; [6],0.61 ± 0.03 mmol/L
same,LDL CHS,[2]; [6],4.24 ± 0.4 mmol/L
same,TG,[2]; [6],1.5 ± 0.11 mmol/L
same,Total CHS,[2]; [6],4.5 ± 0.5 mmol/L
same,"weight coefficient, Pancreas",[3]; [7],0.21 ± 0.01^2
same,"weight coefficient, Kidneys",[3]; [7],0.80 ± 0.02
same,"weight coefficient, Liver",[3]; [7],4.43 ± 0.10
"CC[C@H](C)C(=O)O[C@H]1C[C@@H](C)C=C2C=C[C@H](C)[C@H](CC[C@@H]3C[C@@H](O)CC(=O)O3)[C@H]21 [LV, (1S,3R,7S,8S,8aR)-8-{2-[(2R,4R)-4-hydroxy-6-oxooxan-2-yl]ethyl}-3,7-dimethyl-1,2,3,7,8,8a-hexahydronaphthalen-1-yl (2S)-2-methylbutanoate]",ALT,[1]; [8],160 U/l
same,AST,[1]; [8],183 U/l
same,Amylase,[1]; [8],646 U/l
same,Bilirubin direct,[1]; [8],2.1 mg/dL
same,Bilirubin indirect,[1]; [8],2.1 mg/dL
same,Bilirubin total,[1]; [8],4.6 mg/dL
same,CPK,[1]; [8],510 U/l
same,Glucose,[1]; [8],139 mg/dL
same,Sodium,[1]; [8],128 mmol
same,Urea,[1]; [8],7.3 mmol/L
same,ALT,[1]; [9],141 U/l
same,AST,[1]; [9],190 U/l
same,Amylase,[1]; [9],597 U/l
same,Bilirubin direct,[1]; [9],4.4 mg/dL
same,Bilirubin indirect,[1]; [9],2.3 mg/dL
same,Bilirubin total,[1]; [9],4.4 mg/dL
same,CPK,[1]; [9],597 U/l
same,Glucose,[1]; [9],148 mg/dL
same,Sodium,[1]; [9],128 mmol
same,Urea,[1]; [9],6.0 mmol/L
same,HDL CHS,[2]; [8],0.64 ± 0.05 mmol/L
same,LDL CHS,[2]; [8],4.25 ± 0.44 mmol/L
same,TG,[2]; [8],1.31 ± 0.12 mmol/L
same,Total CHS,[2]; [8],5.6 ± 0.1 mmol/L
same,HDL CHS,[2]; [10],0.89 ± 0.01 mmol/L
same,LDL CHS,[2]; [10],3.82 ± 0.20 mmol/L
same,TG,[2]; [10],1.22 ± 0.03 mmol/L
same,Total CHS,[2]; [10],4.5 ± 0.2 mmol/L
same,HDL CHS,[2]; [11],0.74 ± 0.04 mmol/L
same,LDL CHS,[2]; [11],3.92 ± 0.43 mmol/L
same,TG,[2]; [11],1.21 ± 0.11 mmol/L
same,Total CHS,[2]; [11],4.8 ± 0.2 mmol/L
same,HDL CHS,[2]; [12],0.90 ± 0.01 mmol/L
same,LDL CHS,[2]; [12],3.43 ± 0.23 mmol/L
same,TG,[2]; [12],1.20 ± 0.03 mmol/L
same,Total CHS,[2]; [12],4.1 ± 0.3 mmol/L
same,"weight coefficient, Pancreas",[3]; LV 40 mg,0.48 ± 0.03^1
same,"weight coefficient, Kidneys",[3]; LV 40 mg,0.77 ± 0.01
same,"weight coefficient, Liver",[3]; LV 40 mg,4.46 ± 0.15
same,"weight coefficient, Pancreas",[3]; [13],0.35 ± 0.04
same,"weight coefficient, Kidneys",[3]; [13],0.74 ± 0.02
same,"weight coefficient, Liver",[3]; [13],4.45 ± 0.11
"CC1(C)[C@@H](O[C@H]2O[C@H](C(=O)O)[C@@H](O)[C@H](O)[C@H]2O[C@@H]2O[C@H](C(=O)O)[C@@H](O)[C@H](O)[C@H]2O)CC[C@]2(C)[C@H]3C(=O)C=C4[C@@H]5C[C@@](C)(C(=O)O)CC[C@]5(C)CC[C@@]4(C)[C@]3(C)CC[C@@H]12.[Na+] [SGA, sodium glycyrrhizinate]",ALT,[1]; [4],91 U/l
same,AST,[1]; [4],125 U/l
same,Amylase,[1]; [4],600 U/l
same,Bilirubin direct,[1]; [4],3.0 mg/dL
same,Bilirubin indirect,[1]; [4],1.2 mg/dL
same,Bilirubin total,[1]; [4],4.3 mg/dL
same,CPK,[1]; [4],308 U/l
same,Glucose,[1]; [4],110 mg/dL
same,Potassium,[1]; [4],2.5 mM
same,Sodium,[1]; [4],132 mmol
same,Urea,[1]; [4],6.8 mmol/L
same,ALT,[1]; [9],102 U/l
same,AST,[1]; [9],123 U/l
same,Amylase,[1]; [9],603 U/l
same,Bilirubin direct,[1]; [9],2.0 mg/dL
same,Bilirubin indirect,[1]; [9],1.9 mg/dL
same,Bilirubin total,[1]; [9],2.9 mg/dL
same,CPK,[1]; [9],331 U/l
same,Glucose,[1]; [9],120 mg/dL
same,Potassium,[1]; [9],3.2 mM
same,Sodium,[1]; [9],121 mmol
same,Urea,[1]; [9],5.2 mmol/L
same,HDL CHS,[2]; [4],0.53 ± 0.04 mmol/L
same,LDL CHS,[2]; [4],4.30 ± 0.41 mmol/L
same,TG,[2]; [4],1.3 ± 0.11 mmol/L
same,Total CHS,[2]; [4],5.0 ± 0.4 mmol/L
same,HDL CHS,[2]; [6],0.63 ± 0.03 mmol/L
same,LDL CHS,[2]; [6],4.00 ± 0.3 mmol/L
same,TG,[2]; [6],1.6 ± 0.11 mmol/L
same,Total CHS,[2]; [6],5.0 ± 0.4 mmol/L
same,"weight coefficient, Pancreas",[3]; [13],0.22 ± 0.01^2
same,"weight coefficient, Kidneys",[3]; [13],0.81 ± 0.02
same,"weight coefficient, Liver",[3]; [13],4.42 ± 0.10
